Structures are written as SMILES.

Data set [1] can be described thus: Phosphate binding studies of various lanthanum carbonate hydrates. As to conditions: for % Phosphate removed: two-fold molar excess of lanthanum carbonate hydrate over phosphate; for Peak phosphate binding: in about 7 times (so in the source). Here is the method: To study the phosphate binding activity of lanthanum carbonate dihdyrate, other hydrates of lanthanum carbonate (monohydrate, tetrahydrate and hexahydrate) were prepared. • a) A stock solution of standard phosphate was prepared by dissolving 13.75 g of Na2HPO4 in 1 L deionised water after adjusting the pH to 3.0 with […]. • b) Above stock solution (5 ml) was diluted with 90 ml water adjusted the pH to 3.0 with conc. HCl and made up to 100 ml with water. • c) A two-fold molar excess of Lanthanum carbonate hydrate over phosphate was weighed accurately according to the molecular weight and added to solution b). • d) Sampling was carried out at different time intervals 1, 3, 5, 7, and 10 min. […] Peak phosphate binding exceeding 99% is achieved with the dihydrate in about 7 times whereas only 81% is achieved with the tetrahydrate.

The conditions of data set [2]: room temperature.

Turning to `O.O.O.O.O=C([O-])[O-].O=C([O-])[O-].O=C([O-])[O-].[La+3].[La+3]` [Tetrahydrate, lanthanum carbonate tetrahydrate], the “% Phosphate removed” value in data set [1] (1 min, pH 3.0) was determined as 64.05%; in data set [1] (3 min, pH 3.0), 73.64%; in data set [1] (5 min, pH 3.0), 87.20%; in data set [1] (7 min, pH 3.0), 81.21%; in data set [1] (10 min, pH 3.0) it was 82.80%. This molecule came in with a Peak phosphate binding in data set [1] (pH 3.0) of 81%.
`O.O.O.O.O.O.O=C([O-])[O-].O=C([O-])[O-].O=C([O-])[O-].[La+3].[La+3]` [Hexahydrate]: the “% Phosphate removed” value in data set [1] (1 min, pH 3.0) worked out at 57.10%; in data set [1] (3 min, pH 3.0) it was 60.10%; in data set [1] (5 min, pH 3.0), 79.73%; in data set [1] (7 min, pH 3.0), 76.12%; in data set [1] (10 min, pH 3.0), 81.15%.
Consider `O.O=C([O-])[O-].O=C([O-])[O-].O=C([O-])[O-].[La+3].[La+3]` [Monohydrate], for which the “% Phosphate removed” value in data set [1] (1 min, pH 3.0) stood at 82.73%; in data set [1] (3 min, pH 3.0), 90.05%; in data set [1] (5 min, pH 3.0) it was 87.10%; in data set [1] (7 min, pH 3.0), 91.72%; in data set [1] (10 min, pH 3.0), 98.30%.
Consider `O.O.O=C([O-])[O-].O=C([O-])[O-].O=C([O-])[O-].[La+3].[La+3]` [Dihydrate, lanthanum carbonate dihydrate], for which the “% Phosphate removed” value in data set [1] (1 min, pH 3.0) turned out to be 94.00%; in data set [1] (3 min, pH 3.0), 93.00%; in data set [1] (5 min, pH 3.0), 93.00%; in data set [1] (7 min, pH 3.0), 99.45%; in data set [1] (10 min, pH 3.0) it was 99.17%. Further, the Phosphate binding speed entry in data set [1] (at all points (1-10 min), pH 3.0) is listed as “relatively very fast”. Further, the Peak phosphate binding result in data set [1] (pH 3.0) is listed as “exceeding 99%”. Also, the “Performance in phosphate binding studies” value in data set [1] (over standard lanthanum carbonate tetrahydrate) is on record as “improved performance”. For the same molecule, the Stability result in data set [2] was “stable”.
